{
  "source": "patent US7842671B1",
  "about": "“Peptidomimetic inhibitors of STAT activity and uses thereof” (University of South Florida, priority 2003, dated 2010)",
  "tested_on": "NIH3T3/v-Ras",
  "assay": "Soft-agar growth of v-Ras-transformed fibroblasts",
  "assay_type": "cell-based, mouse",
  "conditions": "1 mM every 2-3 days",
  "protocol": "Cell proliferation, soft-agar growth and Apo-BrdU labeling studies. Proliferating fibroblasts and human tumor cells were counted by phase-contrast microscopy for viable cells (using tyrpan blue exclusion). Colony formation assays in six-well dishes and quantification of colonies by iodonitrotetrazolium violet have been previously described (Turkson, J. et al. (1999)). Treatment of cells with inhibitors was initiated 1 day after seeding cells by adding 75 μl of medium with or without inhibitor, and repeated every two to three days. Apoptosis was measured by Apo-BrdU labeling and following the supplier's (PharMingen; San Diego, Calif.) instructions.\nPrevious studies with PY*LKTK-MTS (SEQ ID NO. 1) (Turkson, J. et al., 2001)) confirmed that inhibition of constitutive Stat3 activation blocks Src transformation (Turkson, J. et al. (1998); Turkson, J. et al., (1999); Bromberg, J. R. et al. (1998)).",
  "data": [
    {"smiles": "CC(C)CC(NC(=O)C(Cc1ccc(OP(=O)(O)O)cc1)NC(=O)c1ccc(C#N)cc1)C(=O)O", "note": "(stereo not shown) [ISS 610]", "values": [
      {"measurement": "soft-agar growth", "result": "no effect"}
    ]}
  ]
}
